Laboratory results reported in patent publication US20240108734A1, “METHODS FOR TREATING AND AMELIORATING CANCER” (The Regents of the University of California, priority 2021, published 2024).
“Also recorded” adds a separate entry of the source.

Experiments:
[1] = tested on: ADAR1-mediated RNA editing; assay: RNA-seq quantification of ADAR1-mediated A-to-I RNA editing in treated BC CML mice; format: in vivo; conditions: human cells from imetelstat treated LSC mouse models; p=0.037
Description: For gene expression and RNA editing analysis, RNA editing sites were identified in REDIportal^34 (see the Supplementary Appendix). […] Gene Set Enrichment Analysis was performed with the Bioconductor package GSVA (see the Supplementary Appendix)^36. For in vitro and in vivo experiments, the Student's t-test was utilized to evaluate statistical significance of normally distributed data and Wilcoxon tests were utilized for non-normally distributed data with a p value of <0.05.
To quantify adenosine-to-inosine (A-to-I) RNA editing events induced by ADAR1, RNA reads were aligned using 2-pass alignment with STAR 2.5.2b 2-pass alignment. […] All sites were kept if a minimum of three alternative allele carrying reads and ten total reads and a minimum allele frequency of 0.10 were present. […] We only predicted RNA editing sites with >10 reads/site to compare mismatches and excluded sites that were identified as DNA variants. […] To account for multiple testing, adjusted p-values were calculated using the Benjamini-Hochberg procedure and genes with events below an adjusted p-value of 0.05 were called significant and retained in the final lists.
FIG. 5H. A boxplot depicting detectable RNA edits per million aligned reads in human CD45^+ cells derived from vehicle (red), mismatch control (blue) and imetelstat (green) treated BC CML mouse models. […]

[2] = tested on: MF CD34+ cells engrafted in NSG-SGM3 mice; assay: Humanized MF MPN-SPC (pre-LSC) mouse model; format: in vivo
Excerpt: Human CD34^+ cells isolated from MF and BC CML samples (Table S2, illustrated as FIG. 11) were transplanted intravenously into adult NSG-SGM3 (expressing human IL-3, GM-CSF and SCF) mice following 300 cGy of irradiation or intrahepatically into neonatal RAG2^−/− yc^−/− mice, respectively^27,32.
Human CD34^+ cells isolated from MF and BC CML (Table S2) samples were transplanted intravenously into adult NSG-SGM3 (expressing human IL-3, GM-CSF and SCF) mice following
300 cGy of irradiation or intrahepatically into newborn RAG2^−/−[…]c^−/− mice^28,32,34. Post-transplantation (13 to 16 weeks), bone marrow and spleen were collected and analyzed by FACS^32. Mice were treated with vehicle, mismatch or imetelstat at varying doses. Also, MF CD34^+ cells were transduced with pCDH lentivirus control or ADAR1-OE lentivirus with a MOI of 100 for 48 hours, followed by intravenous transplantation into NSG-SGM3 mice to assess the impact of ADAR1 overexpression on MF engraftment.
FIG. 4A. A schema of humanized BC CML LSC and MF SPC mouse models. Human CD34^+ cells sorted from either BC CML or myelofibrosis patient blood or marrow were transplanted into neonatal Rag2^−/−[…]c^−/− mice or intravenously transplanted into adult NSG-S mice. Engrafted BC CML or MF mouse models were randomized into (1) vehicle control, (2) mismatch control, and (3) imetelstat treatment groups (n≥3/group). Bone marrow (BM) and spleen were collected when completing the dosing plan, and the single-cell suspension was analyzed by FACS.
FIG. 4B. Bone marrow from each treatment group was collected for histological examination and FACS analysis. Left: Photomicrogaphs depict reticulin staining, DAPI staining, human CD45^+ expression and merged DAPI and CD45 images in bone marrow collected from no transplant, vehicle, and mismatch controls as well as from imetelstat treated myelofibrosis (MF) mouse models. Right: FACS analysis plots depicting forward scatter (FSC, y-axis) and human CD45 engraftment (x-axis) in no transplant, vehicle, and mismatch controls as well as imetelstat treated MF mouse models.

## imetelstat
[1]
  ADAR1-mediated adenosine to inosine RNA editing by RNA-seq: significant reduction; also recorded: significantly reduced
[2]; MF318 mouse BM, compared to control treated mice, p<0.04
  progenitor (CD34+CD38+Lin-) engraftment by FACS: lower
[2]; MF mouse BM, compared to control treated mice, p<0.014
  human CD45+ engraftment by FACS: lower
[2]; bone marrow, vs vehicle and mismatch controls
  human CD45+ leukemic cell engraftment by confocal immunofluorescence microscopy: lower
[2]; compared to control treated mice
  splenomegaly: decreased splenomegaly
[2]; pre-LSC mouse models from 4 different MF samples, vs vehicle controls, p<0.01, t test
  proliferation of human CD45+ cells in bone marrow and spleen: significant reduction
[2]; vs vehicle and mismatch controls
  reticulin fibrosis in bone marrow (immunohistochemistry): less reticulin fibrosis
